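Values below derive from 48-hour exposures of cells grown in 96-well plates, with endpoints linearly interpolated between the two concentrations bracketing the appropriate inhibition level. At the TGI there is no net growth.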
Legend:
Assay in all cases: inhibition of tumour cell growth, NCI panel, 48 h
[1] = test system: OVCAR-8 ovarian
[2] = test system: ACHN renal
[3] = test system: SK-MEL-2 melanoma
[4] = test system: HOP-92 NSCLC
[5] = test system: MALME-3M melanoma
[6] = test system: HS 578T breast
[7] = test system: PC-3 prostate
[8] = test system: CCRF-CEM leukemia
[9] = test system: HCT-116 colon
[10] = test system: NCI-H460 lung
[11] = test system: SF-268 CNS
[12] = test system: EKVX NSCLC
[13] = test system: OVCAR-4 ovarian
[14] = test system: SR leukemia

`N#CC1(C#N)C2CCCCC23OC(=N)C1(C#N)C(c1ccccc1)O3` (stereo not drawn) showed a TGI [1] of 48.9 µM, a TGI [2] greater than 100 µM and a TGI [3] of 43 µM. The TGI [4] was 33.6 µM, the TGI [5] was 34.5 µM and the TGI [6] was 4.76 µM. The TGI [7] was 55.4 µM, the TGI [8] was greater than 100 µM and the TGI [9] was 41.4 µM. For the same compound, the TGI [10] was 49.7 µM, the TGI [11] was 18.1 µM and the TGI [12] was 60.6 µM.
Compound `O=C1C[C@H]2[C@@H](O1)[C@@H](O)CN1C(=O)c3ccccc3[C@H]21` has a TGI [1] greater than 100 µM, a TGI [2] greater than 100 µM and a TGI [3] greater than 100 µM. For the same compound, the TGI [13] was greater than 100 µM, the TGI [14] was greater than 100 µM and the TGI [5] was greater than 100 µM. The TGI [7] was greater than 100 µM, the TGI [8] was greater than 100 µM and the TGI [9] was greater than 100 µM. For the same compound, the TGI [10] was greater than 100 µM, the TGI [11] was greater than 100 µM and the TGI [12] was greater than 100 µM.
For `Cc1c(O)c(C)c2c(C)cn(C(=O)C(C)(C)C)c2c1C`, the TGI [1] was 34.7 µM, the TGI [2] was 35.3 µM and the TGI [3] was 43.4 µM. For the same compound, the TGI [13] was 27 µM, the TGI [4] was 17.5 µM and the TGI [6] was 77.2 µM. It also gave a TGI [7] of 38.5 µM, a TGI [8] of 55.7 µM and a TGI [9] of 45.3 µM. The TGI [10] was 63.8 µM, the TGI [11] was greater than 100 µM and the TGI [12] was 49.7 µM.
`COc1ccc(/C=N/n2c(-c3ccccc3)n[nH]c2=O)cc1` showed a TGI [1] greater than 100 µM, a TGI [2] greater than 100 µM and a TGI [3] greater than 100 µM. The TGI [13] was greater than 100 µM, the TGI [5] was greater than 100 µM and the TGI [6] was 93.7 µM. The TGI [7] was greater than 100 µM, the TGI [8] was greater than 100 µM and the TGI [9] was greater than 100 µM. For the same compound, the TGI [10] was greater than 100 µM, the TGI [11] was greater than 100 µM and the TGI [12] was greater than 100 µM.
With `CC(C)(C)[Si](C)(C)OC1/C(=C/C#N)C(n2ccc(=O)[nH]c2=O)OC1CO` (stereo not drawn) the TGI [1] was greater than 100 µM, the TGI [2] was greater than 100 µM and the TGI [3] was greater than 100 µM. The TGI [13] was greater than 100 µM, the TGI [4] was greater than 100 µM and the TGI [14] was greater than 100 µM. For the same compound, the TGI [5] was greater than 100 µM, the TGI [7] was greater than 100 µM and the TGI [9] was greater than 100 µM. The TGI [10] was greater than 100 µM and the TGI [11] was greater than 100 µM.
`C#CCN(CC#C)C(=O)C(=O)c1c[nH]c2ccc(OC)cc12` gave a TGI [1] of 60.5 µM, a TGI [2] of 65.1 µM and a TGI [4] of 33.2 µM. For the same compound, the TGI [14] was 23.2 µM, the TGI [5] was 32.7 µM and the TGI [6] was 37.6 µM. The TGI [8] was 43.1 µM, the TGI [9] was 36.1 µM and the TGI [10] was 29.7 µM. For the same compound, the TGI [11] was greater than 100 µM and the TGI [12] was greater than 100 µM.
Work on `Cc1ccsc1/C=N/Nc1ccc2ccccc2n1` yielded a TGI [1] greater than 100 µM, a TGI [2] greater than 100 µM and a TGI [3] greater than 100 µM. It also gave a TGI [13] greater than 100 µM, a TGI [4] of 82 µM and a TGI [6] greater than 100 µM. It also gave a TGI [7] greater than 100 µM, a TGI [8] greater than 100 µM and a TGI [9] greater than 100 µM. The TGI [11] was greater than 100 µM and the TGI [12] was greater than 100 µM.
`CC(C)C1=C(Cc2ccccc2)C(=O)O/C1=C\c1cc(Cl)c(O)c(Cl)c1` was tested, and the TGI [1] was 42.4 µM, the TGI [2] was 33 µM and the TGI [13] was 30.1 µM. For the same compound, the TGI [14] was 66.8 µM, the TGI [5] was 36.6 µM and the TGI [6] was 67.7 µM. It also gave a TGI [7] of 31.1 µM, a TGI [8] of 41.5 µM and a TGI [9] of 34.8 µM. It also gave a TGI [10] of 41.2 µM, a TGI [11] of 48.2 µM and a TGI [12] of 65.1 µM.
For `CC(C)(C)NC(=O)N1N=C(c2ccccc2)C1c1ccccc1` (stereo not drawn), the TGI [1] was greater than 100 µM, the TGI [2] was greater than 100 µM and the TGI [13] was greater than 100 µM. The TGI [4] was 65 µM, the TGI [5] was 45.6 µM and the TGI [6] was greater than 100 µM. It also gave a TGI [7] of 56.5 µM, a TGI [8] greater than 100 µM and a TGI [9] of 52.8 µM. It also gave a TGI [10] greater than 100 µM, a TGI [11] greater than 100 µM and a TGI [12] greater than 100 µM.
`COC(=O)C1C=CN(N(C)C)C2=C1C(=O)c1c(O)cccc1C2=O` (stereo not drawn) was tested, and the TGI [1] was 7.4 µM, the TGI [2] was 12.4 µM and the TGI [3] was 7.81 µM. The TGI [13] was 5.57 µM, the TGI [5] was 2.93 µM and the TGI [6] was 7.58 µM. The TGI [7] was greater than 100 µM, the TGI [8] was 5.04 µM and the TGI [9] was 5.79 µM. For the same compound, the TGI [10] was 3.03 µM, the TGI [11] was 17.3 µM and the TGI [12] was 11 µM.
`CCCCn1c(C)c2c(c1C)C(=O)N(CC(O)CN1CCc3ccccc3C1)C2=O` (stereo not drawn) gave a TGI [1] greater than 100 µM, a TGI [2] greater than 100 µM and a TGI [3] of 14.8 µM. For the same compound, the TGI [13] was greater than 100 µM, the TGI [4] was greater than 100 µM and the TGI [5] was greater than 100 µM. It also gave a TGI [6] greater than 100 µM, a TGI [7] greater than 100 µM and a TGI [8] greater than 100 µM. The TGI [9] was greater than 100 µM, the TGI [10] was greater than 100 µM and the TGI [11] was greater than 100 µM. For the same compound, the TGI [12] was greater than 100 µM.
Work on `CSc1nncc2[nH]c(C)nc12` yielded a TGI [1] greater than 100 µM, a TGI [2] greater than 100 µM and a TGI [3] greater than 100 µM. It also gave a TGI [13] greater than 100 µM, a TGI [5] greater than 100 µM and a TGI [7] greater than 100 µM. For the same compound, the TGI [8] was greater than 100 µM, the TGI [9] was greater than 100 µM and the TGI [12] was greater than 100 µM.
With `COC(=O)c1c(O)ccc2c1c1c(n2Cc2ccc(Cl)cc2Cl)C(=O)c2ccccc2C1` the TGI [1] was greater than 100 µM, the TGI [3] was greater than 100 µM and the TGI [13] was 70.6 µM. The TGI [14] was greater than 100 µM, the TGI [5] was greater than 100 µM and the TGI [6] was greater than 100 µM. For the same compound, the TGI [7] was 73.3 µM, the TGI [8] was 71.3 µM and the TGI [9] was greater than 100 µM. For the same compound, the TGI [10] was greater than 100 µM and the TGI [11] was greater than 100 µM.
For `CCOP(=O)(O)C(C)(C)NC`, the TGI [1] was greater than 100 µM, the TGI [2] was greater than 100 µM and the TGI [3] was greater than 100 µM. For the same compound, the TGI [13] was greater than 100 µM, the TGI [4] was greater than 100 µM and the TGI [5] was greater than 100 µM. The TGI [6] was greater than 100 µM, the TGI [7] was greater than 100 µM and the TGI [8] was greater than 100 µM. For the same compound, the TGI [9] was greater than 100 µM, the TGI [10] was greater than 100 µM and the TGI [11] was greater than 100 µM. The TGI [12] was greater than 100 µM.
